Legend:
[1] = system: hypertension attributed to 5/6 nephrectomy; assay: Prophylactic effect of one hour daily H2 inhalation after 5/6 nephrectomy, invasive arterial blood pressure at 4 weeks; assay type: in vivo, Lewis rat; settings: four weeks after 5/6 nephrectomy; 1.3% H2 inhaled one hour daily from immediately after nephrectomy; N=3; mean±SE; P=0.02 vs control gas (134.1±3.3)
Protocol: Invasive blood pressure measurement was performed 4 weeks after gas inhalation. An arterial catheter (PE50, Natsume) was inserted under isoflurane inhalation into the left femoral artery, and arterial blood pressure was measured (DX-360, Nihon Kohden). In order to elicit renal hypertension, 5/6 nephrectomy was carried out with slight modification to previously described methods (Nephrology (Carlton) 19, 552-561; 10.1111/nep.12279 (2014); J. Am. Soc. Nephrol. 4, 2023-2031 (1994); and Kidney Int. 40, 29-34; 10.1038/ki.1991.175 (1991).). Briefly, rats were anesthetized by isoflurane inhalation (induction at 4% and maintenance at 1.5%), and upper midline laparotomy of about 4 cm was carried out. Surgical operation was performed under a microscope, the left renal artery branch was identified, and selectively ligated with 7-0 silk at a position as close as possible to the left kidney so that macroscopic infarction is caused in about ⅔ of the left renal cortex. In the first pilot research (FIGS. 1a and 2), a high-temperature cautery pen (AA11, Bovie, Tenn., U.S.A.) was used to add the resection of the infarcted portion of the kidney. Subsequently, the right renal artery, the renal vein, and the urinary duct was ligated with 4-0 silk, and the right kidney were resected. The abdominal wall and the skin were closed with a 4-0 nylon thread. […]

autonomic nerve function = assay: Autonomic nerve function by frequency analysis in spontaneous hypertension rats; assay type: in vivo, rat (SHR/Izumo); settings: SHR
Protocol: Heart rate variability was analyzed using telemetry system software (Ponemah Ver. 6.3, Data Science International). Frequency domain analysis (sampling rate of 500 Hz; very low frequency (VLF) (0.05-0.25 Hz); low frequency (LF) (0.25-1.0 Hz); and high frequency (HF) (1.0-3.0 Hz)) was carried out using the arterial pressure waveform data of the first one minute of every five minutes (about 300 to 400 beats). In heart rate variability analysis, data recorded in the first 15 minutes was excluded, and effective data in the first one minute out of a block of every 5 minutes was used. LF and HF each reflected the sympathetic nerve component and the parasympathetic nerve component (Akselrod, S. et al. Power spectrum analysis of heart rate fluctuation: a quantitative probe of beat-to-beat cardiovascular control. Science 213, 220-222 (1981); Pagani, M. et al. Power spectral analysis of heart rate and arterial pressure variabilities as a marker of sympatho-vagal interaction in man and conscious dog. Circ. Res. 59, 178-193 (1986); and Montano, N. et al. Power spectrum analysis of heart rate variability to assess the changes in sympathovagal balance during graded orthostatic tilt. Circulation 90, 1826-1831 (1994)). LF/HF ratio and HF/(LF+HF) were each handled as indicators of sympathetic nerve activity and parasympathetic nerve activity (Heart rate variability: standards of measurement, physiological interpretation and clinical use. Task Force of the European Society of Cardiology and the North American Society of Pacing and Electrophysiology. Circulation 93, 1043-1065 (1996); and Pagani, M. et al. Relationship between spectral components of cardiovascular variabilities and direct measures of muscle sympathetic nerve activity in humans. Circulation 95, 1441-1448 (1997)).
H2 gas (1.3% H2+21% O2+77.7 N2) and control gas (21% O2+79% N2) were filled into gas cylinders in advance at a factory. The H2 group and the control group were allowed to inhale the H2 gas and the control gas that were mixed in advance. […]

[2H][2H] [H2 gas, Molecular hydrogen (H2)]
mean arterial pressure (MAP) [1]: 94.2±10.3 mmHg | paraSNA (HF/LF+HF) ratio (autonomic nerve function; Week two compared to Week 1): increases | influence on the autonomic nerve function after the end of inhalation (autonomic nerve function; after the first week after the end of inhalation): disappeared | SNA (LF/HF) (autonomic nerve function; during inhalation of H2): decreases

From patent US20210177889A1, “GASEOUS PHARMACEUTICAL COMPOSITION FOR HYPERTENSION THERAPY” (KEIO UNIVERSITY, priority 2019, published 2021)
